Laboratory results: the RepoRT retention time repository
Where a name gives a salt, the structure may show the parent alone.

Assay: RP, Waters ACQUITY Premier BEH C18, 100 × 2.1 mm, 1.7 µm, 40 °C, 0.3 to 0.4 mL/min, estimated dead time 0.73 min; A: water + 0.1% formic acid; B: acetonitrile + 0.1% formic acid; gradient (min/%B) 0/0.5 0.1/0.5 10/80 10.1/99.5 12/0.5 12.1/0.5 14.5/0.5
Conditions: stereoisomer not certain

LC retention time [min] | SMILES
4.21 | O=C(O)CNC(=O)Cc1ccccc1 [PHENYLACETYLGLYCINE]
5.53 | O=C(O)C(=O)c1ccccc1 [PHENYLGLYOXYLIC ACID]
5.38 | O=C(O)C(=O)Cc1ccccc1 [PHENYLPYRUVATE]
5.01 | O=C(CCc1ccc(O)cc1)c1c(O)cc(O)cc1OC1OC(CO)C(O)C(O)C1O (stereo not given) [PHLORIDZIN]
4.52 | O=C(O)c1ccccc1C(=O)O [PHTHALIC ACID]
7.22 | O=C(C=CC=Cc1ccc2c(c1)OCO2)N1CCCCC1 [PIPERINE]
3.51 | NCc1[nH]cc(CCC(=O)O)c1CC(=O)O [PORPHOBILINOGEN]
7.26 | CC(=O)C1CCC2C3CC=C4CC(OS(=O)(=O)O)CCC4(C)C3CCC12C (stereo not given) [PREGNENOLONE SULFATE]
0.894 | CCC(=O)OC(CC(=O)[O-])C[N+](C)(C)C (stereo not given) [PROPIONYLCARNITINE]
9.14 | C=Cc1c(C)c2cc3[nH]c(cc4nc(cc5nc(cc1[nH]2)C(C)=C5CCC(=O)O)C(CCC(=O)O)=C4C)c(C)c3C=C [PROTOPORPHYRIN]
2.44 | Nc1nc2nccnc2c(=O)[nH]1 [PTERIN]
0.923 | Cc1ncc(CO)c(C=O)c1O [PYRIDOXAL]
3.85 | Oc1ccccc1O [PYROCATECHOL]
2.89 | Oc1cccc(O)c1O [PYROGALLOL]
4.41 | O=c1c(OC2OC(CO)C(O)C(O)C2O)c(-c2ccc(O)c(O)c2)oc2cc(O)cc(O)c12 (stereo not given) [QUERCETIN 3-GALACTOSIDE]
4.41 | O=C(O)C1OC(Oc2c(-c3ccc(O)c(O)c3)oc3cc(O)cc(O)c3c2=O)C(O)C(O)C1O (stereo not given) [QUERCETIN 3-O-GLUCURONIDE]
5.6 | O=c1c(O)c(-c2ccc(O)c(O)c2)oc2cc(O)cc(O)c12 [QUERCETIN]
4.68 | CC1OC(Oc2c(-c3ccc(O)c(O)c3)oc3cc(O)cc(O)c3c2=O)C(O)C(O)C1O (stereo not given) [QUERCITRIN]
1.61 | O=C(O)c1cccnc1C(=O)O [QUINOLINATE]
5.3 | Oc1ccc(C=Cc2cc(O)cc(O)c2)cc1 [RESVERATROL]
9.05 | CC(C=CC1=C(C)CCCC1(C)C)=CC=CC(C)=CC(=O)O [RETINOATE]
7.07 | O=C(O)c1cc(O)c2c(c1)C(=O)c1cccc(O)c1C2=O [RHEIN]
4.4 | Cc1cc2nc3c(=O)[nH]c(=O)nc-3n(CC(O)C(O)C(O)CO)c2cc1C (stereo not given) [RIBOFLAVIN]

LC retention time [min] | SMILES
3.08 | Nc1ncnc2c1ncn2C1OC(CSCCC(N)C(=O)O)C(O)C1O (stereo not given) [S-ADENOSYLHOMOCYSTEINE]
1.22 | C=CCSCC(N)C(=O)O (stereo not given) [S-ALLYLCYSTEINE]
2.95 | OCc1ccccc1OC1OC(CO)C(O)C(O)C1O (stereo not given) [SALICIN]
1.09 | C[Se]CCC(N)C(=O)O (stereo not given) [SELENOMETHIONINE]
4.58 | COc1cc(C=CC(=O)O)cc(OC)c1O [SINAPIC ACID]
5.71 | CC=CC=CC(=O)O [SORBATE]
7.51 | CCCCCCCCCCCCCCCC(O)C(N)CO (stereo not given) [SPHINGANINE]
7.39 | CCCCCCCCCCCCCC=CC(O)C(N)CO (stereo not given) [SPHINGOSINE]
11 | CCCCCCCCCCCCCCCCCC(=O)O [STEARATE]
1.76 | O=C(O)CCC(=O)O [SUCCINATE]
7.26 | COc1ccc(-c2cc(=O)c3c(OC)c(OC)c(OC)c(OC)c3o2)cc1 [TANGERETIN]
5.85 | CC(CCC(=O)NCCS(=O)(=O)O)C1CCC2C3C(O)CC4CC(O)CCC4(C)C3CC(O)C12C (stereo not given) [TAUROCHOLIC ACID]
7.44 | CCCCCCCCCCCCCC(=O)OC(CC(=O)[O-])C[N+](C)(C)C (stereo not given) [TETRADECANOYLCARNITINE]
5.18 | O=c1cc(C2Oc3cc(O)cc(O)c3CC2O)cc2c(C3Oc4cc(O)cc(O)c4CC3O)cc(O)c(O)c2c1O (stereo not given) [THEAFLAVIN]
4.31 | CSc1ncnc2nc[nH]c12 [THIOPURINE S-METHYLETHER]
2.99 | Cc1c[nH]c(=O)[nH]c1=O [THYMINE]
6.62 | NC(Cc1cc(I)c(Oc2cc(I)c(O)c(I)c2)c(I)c1)C(=O)O (stereo not given) [THYROXINE]
6.45 | O=C(O)/C=C/c1ccccc1 [TRANS-CINNAMATE]
0.911 | OCC1OC(OC2OC(CO)C(O)C(O)C2O)C(O)C(O)C1O (stereo not given) [TREHALOSE]
4.35 | OCC1OC(Oc2ccc3c(c2)OCC2c4cc5c(cc4OC32)OCO5)C(O)C(O)C1O (stereo not given) [TRIFOLIRHIZIN]
2.44 | NC(Cc1ccc(O)cc1)C(=O)O (stereo not given) [TYROSINE]
4.61 | O=c1ccc2ccc(O)cc2o1 [UMBELLIFERONE]

Further lines, the compound ahead of its results:

SMILES | LC retention time [min]
NC(=O)CCC(NC(=O)Cc1ccccc1)C(=O)O (stereo not given) [PHENYLACETYLGLUTAMINE] | 3.9
O=C(O)CNC(=O)CCc1ccccc1 [PHENYLPROPIONYLGLYCINE] | 4.84
O=C(CCc1ccc(O)cc1)c1c(O)cc(O)cc1O [PHLORETIN] | 6.03
O=C(O)CP(=O)(O)O [PHOSPHONOACETATE] | 0.959
O=C(O)C1CCCCN1 (stereo not given) [PIPECOLATE] | 1.33
O=C(O)C1CCCN1 (stereo not given) [PROLINE] | 0.916
CCCOC(=O)c1ccc(O)cc1 [PROPYLPARABEN] | 6.78
O=c1c(-c2ccc(O)cc2)coc2c(C3OC(CO)C(O)C(O)C3O)c(O)ccc12 (stereo not given) [PUERARIN] | 3.76
c1ncc2[nH]cnc2n1 [PURINE] | 2.2
Cc1ncc(CO)c(CO)c1O [PYRIDOXINE] | 2.1
O=C(O)c1ccc[nH]1 [PYRROLE-2-CARBOXYLATE] | 4.38
O=C(O)C1(O)CC(O)C(O)C(O)C1 (stereo not given) [QUINATE] | 0.92
C=CC1CN2CCC1CC2C(O)c1ccnc2ccc(OC)cc12 (stereo not given) [QUININE] | 3.88
O=c1cc[nH]c2c(O)cccc12 [QUINOLINE-4,8-DIOL] | 4.14
OCC1OC(OCC2OC(OC3(CO)OC(CO)C(O)C3O)C(O)C(O)C2O)C(O)C(O)C1O (stereo not given) [RAFFINOSE] | 0.962
CC(=O)Oc1cccc(O)c1 [RESORCINOL MONOACETATE] | 5.71
CC1OC(O)C(O)C(O)C1O (stereo not given) [RHAMNOSE] | 0.913
Cc1cn(C2OC(CO)C(O)C2O)c(=O)[nH]c1=O (stereo not given) [RIBOTHYMIDINE] | 1.24
O=C(C=Cc1ccc(O)c(O)c1)OC(Cc1ccc(O)c(O)c1)C(=O)O (stereo not given) [ROSMARINATE] | 5.44
C=C(C)C1Cc2c(ccc3c2OC2COc4cc(OC)c(OC)cc4C2C3=O)O1 (stereo not given) [ROTENONE] | 7.55
CC1OC(OCC2OC(Oc3c(-c4ccc(O)c(O)c4)oc4cc(O)cc(O)c4c3=O)C(O)C(O)C2O)C(O)C(O)C1O (stereo not given) [RUTIN] | 4.25
NC(=O)c1ccccc1O [SALICYLAMIDE] | 5.04
O=C(O)c1ccccc1O [SALICYLATE] | 5.97
O=C(O)CNC(=O)c1ccccc1O [SALICYLURIC ACID] | 4.56
CC1NCCc2cc(O)c(O)cc21 (stereo not given) [SALSOLINOL] | 2.56

SMILES | LC retention time [min]
C=CC(C)(O)CCC1C(C)(O)CCC2C(C)(C)CCCC21C (stereo not given) [SCLAREOL] | 8.18
COc1cc2ccc(=O)oc2cc1OC [SCOPARONE] | 5.34
COc1cc2ccc(=O)oc2cc1O [SCOPOLETIN] | 4.62
O=C(O)CCCCCCCCC(=O)O [SEBACATE] | 6.03
COc1cc(CC(COC2OC(CO)C(O)C(O)C2O)C(COC2OC(CO)C(O)C(O)C2O)Cc2ccc(O)c(OC)c2)ccc1O (stereo not given) [SECOISOLARICIRESINOL DIGLUCOSIDE] | 4.58
NCCc1c[nH]c2ccc(O)cc12 [SEROTONIN] | 3.44
COc1cc(C2Oc3cc(C4Oc5cc(O)cc(O)c5C(=O)C4O)ccc3OC2CO)ccc1O (stereo not given) [SILIBININ] | 5.88
C=CCC(=NOS(=O)(=O)O)SC1OC(CO)C(O)C(O)C1O (stereo not given) [SINIGRIN] | 2.03
OCC1OC(OCC2OC(OCC3OC(OC4(CO)OC(CO)C(O)C4O)C(O)C(O)C3O)C(O)C(O)C2O)C(O)C(O)C1O (stereo not given) [STACHYOSE] | 0.921
CCCCCCCCCCCCCCCCCC(=O)NCCO [STEAROYLETHANOLAMIDE] | 9.74
O=C(O)CCCCCCC(=O)NCC(=O)O [SUBERYLGLYCINE] | 3.79
CS(=O)CCCCN=C=S (stereo not given) [SULFORAPHANE] | 4.72
O=C(O)c1ccc(CO)o1 [SUMIKI'S ACID] | 3.65
COc1cc(C(=O)O)cc(OC)c1O [SYRINGIC ACID] | 3.98
Cn1cnc2c1c(=O)[nH]c(=O)n2C [THEOBROMINE] | 3.71
Cn1c(=O)c2[nH]cnc2n(C)c1=O [THEOPHYLLINE] | 3.96
NC(N)=S [THIOUREA] | 0.942
Cc1cn(C2CC(O)C(COP(=O)(O)O)O2)c(=O)[nH]c1=O (stereo not given) [THYMIDINE-MONOPHOSPHATE] | 2.73
Cc1cn(C2CC(O)C(CO)O2)c(=O)[nH]c1=O (stereo not given) [THYMIDINE] | 3.56
Cc1ccc(C(C)C)c(O)c1 [THYMOL] | 5.78
NCCc1c[nH]c2ccccc12 [TRYPTAMINE] | 4.34
NCCc1ccc(O)cc1 [TYRAMINE] | 2.81
O=C(O)CCCCCCCCCC(=O)O [UNDECANEDIOIC ACID] | 6.09
O=C(O)c1c[nH]c(=O)[nH]c1=O [URACIL 5-CARBOXYLATE] | 1.91
O=c1cc[nH]c(=O)[nH]1 [URACIL] | 1.39
